Experimental findings from US7250434B2, “CCK-1 receptor modulators” (Janssen Pharmaceutica N.V., priority 2003, dated 2007) are described below.

The target in this assay is T1, CCK-1 receptor (Homo sapiens, UniProt P32238).
T1 construct: expressed in transfected cells; membranes
T1 sequence (P32238 1-428): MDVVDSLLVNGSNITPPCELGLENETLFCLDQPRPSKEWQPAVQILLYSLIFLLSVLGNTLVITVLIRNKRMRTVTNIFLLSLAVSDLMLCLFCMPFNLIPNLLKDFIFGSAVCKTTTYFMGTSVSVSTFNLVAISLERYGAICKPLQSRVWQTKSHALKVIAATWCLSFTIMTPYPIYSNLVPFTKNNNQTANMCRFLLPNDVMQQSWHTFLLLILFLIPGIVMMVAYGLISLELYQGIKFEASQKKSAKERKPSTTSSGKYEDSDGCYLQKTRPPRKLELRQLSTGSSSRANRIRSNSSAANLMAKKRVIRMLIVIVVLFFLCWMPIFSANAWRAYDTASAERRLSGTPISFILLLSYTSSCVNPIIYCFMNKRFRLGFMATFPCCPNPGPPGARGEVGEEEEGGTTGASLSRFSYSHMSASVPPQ
The assay can be described thus: [125I]-BH-CCK-8S competition binding to membranes of CHO-K1 cells stably transfected with the CCK-1 receptor. Conditions: membranes of CCK-1 transfected CHO-K1 cells; 20 pM [125I]-BH-CCK-8S; 0.3 μM PD-134,308 present; 60 min at 21±3° C.; Cheng-Prusoff. The method, then: CHO-K1 cells that had undergone stable transfection with the CCK-1 receptor were grown in DMEM supplemented with L-glutamine (2 mM), penicillin (50 units/mL) and streptomycin (50 μg/mL). Cells were cultured under continuous G418 selection (2 mM) and were harvested using a rubber cell scraper. CHO-K1 cells were sub-cultured a maximum of ten times before being reseeded from the original stocks.
Membranes were prepared from the stably transfected CHO-K1 cells. Frozen cell pellets (−40° C.) were thawed in 14 mL of buffer A (10 mM HEPES, 130 mM NaCl, 4.7 mM KCl, 5 mM MgCl, 1 mM EGTA and 15.4 mg/100 mL bacitracin at pH 7.2), adapted from Harper et al. (Br. J. Pharmacol. 1996, 118:1717-1726). The thawed pellets were homogenized using a Polytron PT-10 (7×1 s). The homogenates were centrifuged for 5 min at 1500 rpm (600×g), and the resulting pellets were discarded. The supernatants were re-centrifuged in order to collect the receptor-membrane pellets (25 min 15,000 rpm; 39,800×g), which were re-suspended in buffer A.
All assays were conducted in 96-well plates (GF/B millipore filter plates) using buffer A, with 0.3 μM PD-134,308, for the dilutions. The CCK-2 receptor ligand was included to eliminate the contribution of this receptor subtype to the binding. For the optimal cell number determination experiments 20 pM [^125I]-BH-CCK-8S (50 μL 60 pM solution) was incubated with a range of cell concentrations (2.5×105 to 12.5×10^5 cells/well) in a total volume of 150 μL. Total binding of [^125I]-BH-CCK-8S was determined in the presence of 15 μL of buffer A. Non-specific binding of [^125I]-BH-CCK-8S was determined in the presence of 15 μL of 100 μM 2-naphthalenesulphonyl L-aspartyl-(2-phenethyl)amide (2-NAP: see R. A. Hull et al. Br. J. Pharmacol. 1993, 108:734-740), a CCK-1 receptor selective antagonist that is structurally unrelated to the radioligand [^125I]-BH-CCK-8S. The assay preparation was incubated for 1 h at 21±3° C., and then the assay was terminated upon rapid filtration of the preparation under reduced pressure. The loaded filters were washed three times using undiluted PBS (100 μL), and then the residues were transferred to 5 mL scintillation tubes. Bound radioactivity was determined using a gamma counter (count time=1 min). From these experiments a cell concentration of 1 pellet in 40 mL of buffer (2.5×10^6 cells/mL) was chosen for use in other assays (below). To validate the radioligand concentration and incubation time for the assay, saturation and kinetic binding studies were also conducted (see M. F. Morton, The Pharmacological Characterization of Cholecystokinin Receptors in the Human Gastrointestinal Tract. PhD Thesis, University of London, 2000). The affinity of novel compounds was estimated by incubating membrane preparations with 15 μL of competing ligand (0.1 pM-1 mM) for 60 min at 21±3° C. The assay was then terminated according to the procedure outlined above.
The pKi values were determined using the equation of Y.-C. Cheng and W. H. Prusoff (Biochem. Pharmacol. 1973, 22(23):3099-3108):
[formula] To circumvent problems associated with computer-assisted data analysis of compounds with low affinity, the data obtained in the current study were weighted according to a method described by Morton (2000). In brief, 100% and 0% specific binding were defined independently using total binding and binding obtained in the presence of a high concentration of the reference antagonist, 2-NAP.

On to `O=C(O)/C(=C\c1nc(-c2cc(Cl)ccc2Cl)c(-c2ccc3c(c2)OCO3)[nH]1)c1cccc(Cl)c1` [Example 1, (Z)-3-[5-Benzo[1,3]dioxol-5-yl-4-(2,5-dichloro-phenyl)-1H-imidazol-2-yl]-2-(3-chloro-phenyl)-acrylic acid], for which the Ki was 2 nM.

`O=C(O)/C(=C/c1nc(-c2cc(Cl)ccc2Cl)c(-c2ccc3c(c2)OCO3)[nH]1)c1cccc(Cl)c1` [Example 2, (E)-3-[5-Benzo[1,3]dioxol-5-yl-4-(2,5-dichloro-phenyl)-1H-imidazol-2-yl]-2-(3-chloro-phenyl)-acrylic acid] gave an inhibition constant Ki of 3.16 nM.

`Cc1cccc(/C(=C/c2nc(-c3cc(Cl)ccc3Cl)c(-c3ccc4c(c3)OCO4)[nH]2)C(=O)O)c1` [Example 3, (Z)-3-[5-Benzo[1,3]dioxol-5-yl-4-(2,5-dichloro-phenyl)-1H-imidazol-2-yl]-2-m-tolyl-acrylic acid] had an inhibition constant Ki of 2 nM.

The molecule `O=C(O)/C(=C\c1nc(-c2cc(Cl)ccc2Cl)c(-c2ccc3c(c2)OCO3)[nH]1)c1cccc2ccccc12` [Example 4, (Z)-3-[5-Benzo[1,3]dioxol-5-yl-4-(2,5-dichloro-phenyl)-1H-imidazol-2-yl]-2-naphthalen-1-yl-acrylic acid] showed an inhibition constant Ki of 2.51 nM.

Regarding `O=C(O)/C(=C\c1nc(-c2cc(Cl)ccc2Cl)c(-c2ccc3c(c2)OCO3)[nH]1)c1ccc(Cl)cc1` [Example 5, (Z)-3-[5-Benzo[1,3]dioxol-5-yl-4-(2,5-dichloro-phenyl)-1H-imidazol-2-yl]-2-(4-chloro-phenyl)-acrylic acid], the Ki is 3.16 nM.

In turn, `Cc1ccc(/C(=C/c2nc(-c3cc(Cl)ccc3Cl)c(-c3ccc4c(c3)OCO4)[nH]2)C(=O)O)cc1` [Example 6, (Z)-3-[5-Benzo[1,3]dioxol-5-yl-4-(2,5-dichloro-phenyl)-1H-imidazol-2-yl]-2-p-tolyl-acrylic acid] had a Ki of 3.98 nM.

For the molecule `O=C(O)/C(=C\c1nc(-c2cc(Cl)ccc2Cl)c(-c2ccc3c(c2)OCO3)[nH]1)c1cccc(C(F)(F)F)c1` [Example 7, (Z)-3-[5-Benzo[1,3]dioxol-5-yl-4-(2,5-dichloro-phenyl)-1H-imidazol-2-yl]-2-(3-trifluoromethyl-phenyl)-acrylic acid], the affinity corresponds to a Ki of 5.01 nM.

In turn, `COc1ccc(-c2[nH]c(/C=C(\C(=O)O)c3cccc(Cl)c3)nc2-c2ccc(Cl)c(Cl)c2)cc1` [Example 8, (Z)-2-(3-Chloro-phenyl)-3-[4-(3,4-dichloro-phenyl)-5-(4-methoxy-phenyl)-1H-imidazol-2-yl]-acrylic acid] had a Ki of 5.01 nM.

Turning to `COc1ccc(-c2[nH]c(/C=C(\C(=O)O)c3cccc(C)c3)nc2-c2ccc(Cl)c(Cl)c2)cc1` [Example 9, (Z)-3-[4-(3,4-Dichloro-phenyl)-5-(4-methoxy-phenyl)-1H-imidazol-2-yl]-2-m-tolyl-acrylic acid], affinity was put at a Ki of 7.94 nM.

In the case of `COc1ccc(-c2[nH]c(/C=C(\C(=O)O)c3cccc(C(F)(F)F)c3)nc2-c2ccc(Cl)c(Cl)c2)cc1` [Example 10, (Z)-3-[4-(3,4-Dichloro-phenyl)-5-(4-methoxy-phenyl)-1H-imidazol-2-yl]-2-(3-trifluoromethyl-phenyl)-acrylic acid], affinity was put at a Ki of 10 nM.

`COc1ccc(-c2[nH]c(/C=C(\C(=O)O)c3ccc(C)cc3)nc2-c2ccc(Cl)c(Cl)c2)cc1` [Example 11, (Z)-3-[4-(3,4-Dichloro-phenyl)-5-(4-methoxy-phenyl)-1H-imidazol-2-yl]-2-p-tolyl-acrylic acid] had an inhibition constant (Ki) of 10 nM.

With `O=C(O)/C(=C\c1nc(-c2ccccn2)c(-c2ccc3ccccc3c2)[nH]1)c1cccc(Cl)c1` [Example 12, (Z)-2-(3-Chloro-phenyl)-3-(5-naphthalen-2-yl-4-pyridin-2-yl-1H-imidazol-2-yl)-acrylic acid], the inhibition constant Ki is 5.01 nM.

As to `COc1ccc(-c2[nH]c(/C=C(/C(=O)O)c3cccc4ccccc34)nc2-c2ccc(Cl)c(Cl)c2)cc1` [Example 13, (E)-3-[4-(3,4-Dichloro-phenyl)-5-(4-methoxy-phenyl)-1H-imidazol-2-yl]-2-naphthalen-1-yl-acrylic acid], the inhibition constant (Ki) is 200 nM.

Consider `COc1ccc(-c2[nH]c(/C=C(/C(=O)O)c3ccc(C)cc3)nc2-c2ccc(Cl)c(Cl)c2)cc1` [Example 14, (E)-3-[4-(3,4-Dichloro-phenyl)-5-(4-methoxy-phenyl)-1H-imidazol-2-yl]-2-p-tolyl-acrylic acid], for which the inhibitory constant (Ki) is 100 nM.

In the case of `COc1ccc(-c2[nH]c(/C=C(/C(=O)O)c3ccc(Cl)cc3)nc2-c2ccc(Cl)c(Cl)c2)cc1` [Example 15, (E)-2-(4-Chloro-phenyl)-3-[4-(3,4-dichloro-phenyl)-5-(4-methoxy-phenyl)-1H-imidazol-2-yl]-acrylic acid], the Ki was 79.4 nM.

As to `COc1ccc(-c2[nH]c(/C=C(/C(=O)O)c3cccc(C(F)(F)F)c3)nc2-c2ccc(Cl)c(Cl)c2)cc1` [Example 16, (E)-3-[4-(3,4-Dichloro-phenyl)-5-(4-methoxy-phenyl)-1H-imidazol-2-yl]-2-(3-trifluoromethyl-phenyl)-acrylic acid], the affinity, expressed as Ki, was 79.4 nM.

`COc1ccc(-c2[nH]c(/C=C(/C(=O)O)c3cccc(C)c3)nc2-c2ccc(Cl)c(Cl)c2)cc1` [Example 17, (E)-3-[4-(3,4-Dichloro-phenyl)-5-(4-methoxy-phenyl)-1H-imidazol-2-yl]-2-m-tolyl-acrylic acid] had a Ki of 79.4 nM.

`COc1ccc(-c2[nH]c(/C=C(/C(=O)O)c3cccc(Cl)c3)nc2-c2ccc(Cl)c(Cl)c2)cc1` [Example 18, (E)-2-(3-Chloro-phenyl)-3-[4-(3,4-dichloro-phenyl)-5-(4-methoxy-phenyl)-1H-imidazol-2-yl]-acrylic acid] had a Ki of 63.1 nM.

Regarding `Cc1cccc(/C(=C\c2nc(-c3cc(Cl)ccc3Cl)c(-c3ccc4c(c3)OCO4)[nH]2)C(=O)O)c1` [Example 19, (E)-3-[5-Benzo[1,3]dioxol-5-yl-4-(2,5-dichloro-phenyl)-1H-imidazol-2-yl]-2-m-tolyl-acrylic acid], the Ki was 15.8 nM.

For the molecule `O=C(O)/C(=C/c1nc(-c2cc(Cl)ccc2Cl)c(-c2ccc3c(c2)OCO3)[nH]1)c1ccc(Cl)cc1` [Example 20, (E)-3-[5-Benzo[1,3]dioxol-5-yl-4-(2,5-dichloro-phenyl)-1H-imidazol-2-yl]-2-(4-chloro-phenyl)-acrylic acid], the Ki is 15.8 nM.

The molecule `O=C(O)/C(=C/c1nc(-c2cc(Cl)ccc2Cl)c(-c2ccc3c(c2)OCO3)[nH]1)c1cccc(C(F)(F)F)c1` [Example 21, (E)-3-[5-Benzo[1,3]dioxol-5-yl-4-(2,5-dichloro-phenyl)-1H-imidazol-2-yl]-2-(3-trifluoromethyl-phenyl)-acrylic acid] had a Ki of 20 nM.

`Cc1ccc(/C(=C\c2nc(-c3cc(Cl)ccc3Cl)c(-c3ccc4c(c3)OCO4)[nH]2)C(=O)O)cc1` [Example 22, (E)-3-[5-Benzo[1,3]dioxol-5-yl-4-(2,5-dichloro-phenyl)-1H-imidazol-2-yl]-2-p-tolyl-acrylic acid] gave a Ki of 25.1 nM.
